# Measurements as given in publication PMC5892879, “Structures of the Mycobacterium tuberculosis GlpX protein (class II fructose-1,6-bisphosphatase): implications for the active oligomeric state, catalytic mechanism and citrate inhibition” (Acta Crystallographica. Section D, Structural Biology, 2018).
# Where “and” joins values, the source holds several entries; their conditions need not be identical. Identical values can stand only once. Entries after “also recorded” stand apart in the source; their conditions may differ. Like-named read-outs stand apart in the source and are kept apart here.
# Columns and labels:
# [1] = target: T1, MtFBPaseII (Mycobacterium tuberculosis, UniProt P9WN21); test: FBPase activity of wild-type MtFBPaseII, malachite green assay; assay type: biochemical; settings: for IC50: wild-type MtFBPaseII, malachite green assay, fit of triplicate data, standard error reported; for Effect on MtFBPaseII activity (in words): TCA cycle intermediates tested for inhibitory activity
# T1 construct: His-tag (N); made in house
# T1 sequence (P9WN21 whole entry): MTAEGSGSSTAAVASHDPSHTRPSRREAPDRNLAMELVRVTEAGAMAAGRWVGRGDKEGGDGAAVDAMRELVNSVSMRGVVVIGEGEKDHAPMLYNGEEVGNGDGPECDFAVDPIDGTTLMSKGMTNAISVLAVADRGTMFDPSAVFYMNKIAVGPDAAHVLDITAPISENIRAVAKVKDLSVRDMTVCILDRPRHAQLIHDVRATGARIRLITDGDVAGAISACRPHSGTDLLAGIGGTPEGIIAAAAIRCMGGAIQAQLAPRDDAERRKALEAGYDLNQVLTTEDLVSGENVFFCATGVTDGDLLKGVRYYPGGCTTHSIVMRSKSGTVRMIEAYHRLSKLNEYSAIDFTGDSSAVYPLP
# Experimental: The FBPase activity of wild-type MtFBPaseII was measured using the malachite green assay (Bondoc et al., 2017[▸]) in the presence of α-ketoglutarate, citrate, isocitrate, malate, malonate and oxaloacetate. Compounds were tested in triplicate at concentrations of 5000, 3000, 2500, 1300, 630, 310 and 160 µM with positive (no compound) and negative (no enzyme) controls in parallel. Fitting was performed with GraphPad Prism (v.7.0b; GraphPad Software, La Jolla, California, USA). The coupled assay (Bondoc et al., 2017[▸]) was used to obtain kinetic data, which were fitted to a nonlinear Michaelis–Menten equation.
# [2] = test system: EcFBPaseI; parameters: method as in Hines et al., 2007; settings: in the presence of 5 µM AMP, ref Hines et al., 2007; cited from earlier work
# [3] = read-out: IC50 values of compounds against MtFBPaseII
# [4] = IC50 values of compounds against MtFBPaseII
compound,measurement,setting,value
"O=C(O)CC(=O)O [Malonate, malonate]",Concentration with a weak effect on the activity of the enzyme,"[1]; MtFBPaseII, Fig. 4",3 to 4 mM
same,IC50,[1]; [3],3.2 ± 0.1 mM
"O=C(O)CC(O)C(=O)O (centres unmarked) [Malate, malate]",IC50,[1]; [4],3.3 ± 0.1 mM
O=C(O)CC(=O)C(=O)O [Oxaloacetate],IC50,[1]; [4],6.4 ± 0.5 mM
same,Effect on MtFBPaseII activity (in words),[1],limited effect
O=C(O)CC(O)(CC(=O)O)C(=O)O [Citrate],Concentration range resulting in activation of the enzyme,[2],0.5 to 5 mM
same,IC50,[1]; [4],~2 mM and 2 mM
"O=C(O)CCC(=O)C(=O)O [α-Ketoglutarate, α-ketoglutarate]",IC50,[1]; [3],3.1 ± 0.2 mM
"C=C(OP(=O)(O)O)C(=O)O [PEP, phosphoenolpyruvate]",Concentration range resulting in activation of the enzyme,[2],0.5 to 5 mM
O=C(O)CC(C(=O)O)C(O)C(=O)O (centres unmarked) [Isocitrate],Effect on MtFBPaseII activity (in words),[1],no effect
same,Inhibition of MtFBPaseII,[1]; up to a concentration of 5 mM,did not inhibit; also recorded: did not have any measureable activity
